Experimental findings from patent publication US12528767B2, “HDAC6 inhibitors and uses thereof” (Eikonizo Therapeutics, Inc., priority 2019, dated 2026) are described below.

The test system of assay [1] is tubulin acetylation (acTubK40) in undifferentiated SH-SY5Y cells. Description: Tubulin acetylation in cells (Western immunoblot). It is filed as cell-based. Particulars: Homo sapiens, 4 hours, acetylTubulin/Tubulin ratio. The protocol:
(§1) Compound EC50 Determination for Tubulin- and Histone H3 Acetylation in Cells
(§2) Estimation of the EC50 for exemplary compounds to alter target protein acetylation in undifferentiated SH-SY5Y cells was performed using standard Western immunoblotting methods. […] SH-SY5Y cells were grown to 90% confluency on sterile cell growth plates. 10 mM compound stocks prepared in DMSO and two-fold serial dilutions were prepared from the stock and applied to cells to achieve a 12-point concentration range in cell media from an upper limit of 10 μM to a lower limit of DMSO [zero compound].
(§3) Cells were incubated under normal growth conditions (37° C., 5% CO2) in the presence of compound for 4 hours, then media was aspirated and cells were rinsed two times with 1×DPBS with calcium and magnesium warmed to 37° C. Cells were frozen directly on the plates on a bed of dry ice for 5 min, then stored at −80° C. until protein extraction.
(§4) Protein extraction was performed in RIPA buffer (50 mM Tris-HCL pH 8.0, 150 mM NaCl, 0.5% sodium deoxycholate, 0.1% sodium dodecyl sulfate, 1% NP-40) supplemented with Pierce protease inhibitor mini tables (Thermofisher cat #A32953) exactly as described by the manufacturer. After thawing the plate on a bed of wet ice for 10 minutes, lysis buffer was added to each well (e.g. 100 μL per well of a 24-well plate) and cells scraped from the bottom of each well. Lysates were then sonicated over ice (40% power, 30 pulses of 1 second on, 2 seconds off), centrifuged at 16,000 g for 10 min at 4° C., and the clarified supernatant saved. Protein concentration was determined by BCA assay and at least 3 μg prepared per lane by combining lysate supernatant aliquot with 1/3 total volume of 3× gel loading buffer containing DTT (NEB Cat. #B7703S), heating for 5 minutes at 95° C., briefly centrifuging and then loading on an SDS-PAGE gel.
(§5) Proteins were resolved on a 4-20% Tris-Glycine gel and transferred to PVDF membrane using an iBlot2 dry transfer system. The membrane was then blocked for at least 30 minutes at room temperature in TBST containing 5% milk or 5% bovine serum albumin, then incubated overnight at 4° C. with a single primary antibody from the following table:
(§6) Following primary antibody incubation, membranes were washed, incubated in secondary antibody, washed and incubated in ECL prime western blotting detection reagent (Amersham #RPN223) with membrane exposure and ECL signal capture in a LI-COR Odyssey Imaging system. […] Subsequent densitometry of immunoreactive bands was performed using the ImageStudio software and Microsoft Excel resulting in the following ratios: acetylTubulin/Tubulin and acetyl histone H3K9/histone H3. Raw ratios were uploaded to GraphPad Prism v7.0 with EC50 values modeled using the variable slope equation for log-transformed data [log(agonist) vs response in Prism].
Background: A western blot detects proteins with antibodies after separation by electrophoresis.

Assay [2] concerns histone H3 acetylation (acH3K9) in undifferentiated SH-SY5Y cells. Kind of assay: Histone H3 acetylation in cells (Western immunoblot). It counts as cell-based. As to conditions: Homo sapiens, 4 hours, acetyl histone H3K9/histone H3 ratio. The protocol: as §1, §2, §3, §4, §5, §6
Another assay deals with Full length Human HDAC2 (Homo sapiens, UniProt Q92769).
Chain of Full length Human HDAC2 (Q92769 whole entry): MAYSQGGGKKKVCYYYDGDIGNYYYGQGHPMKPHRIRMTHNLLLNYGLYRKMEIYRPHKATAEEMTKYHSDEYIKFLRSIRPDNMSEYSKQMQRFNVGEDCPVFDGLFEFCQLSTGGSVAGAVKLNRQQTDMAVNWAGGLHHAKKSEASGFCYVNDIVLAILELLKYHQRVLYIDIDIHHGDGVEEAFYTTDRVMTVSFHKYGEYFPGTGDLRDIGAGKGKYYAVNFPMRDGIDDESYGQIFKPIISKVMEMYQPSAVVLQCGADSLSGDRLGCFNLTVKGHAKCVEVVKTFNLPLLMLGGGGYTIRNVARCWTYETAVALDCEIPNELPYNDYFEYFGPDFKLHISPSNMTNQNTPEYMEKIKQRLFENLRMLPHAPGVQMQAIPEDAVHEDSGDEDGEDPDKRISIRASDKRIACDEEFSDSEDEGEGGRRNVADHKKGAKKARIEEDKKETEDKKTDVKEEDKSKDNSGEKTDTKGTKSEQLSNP
The target of assay [3] is Full length Human HDAC3 co-expressed with Human NCOR2 (Homo sapiens, UniProt O15379).
Chain of Full length Human HDAC3 co-expressed with Human NCOR2 (O15379 whole entry, the tested form may be a part): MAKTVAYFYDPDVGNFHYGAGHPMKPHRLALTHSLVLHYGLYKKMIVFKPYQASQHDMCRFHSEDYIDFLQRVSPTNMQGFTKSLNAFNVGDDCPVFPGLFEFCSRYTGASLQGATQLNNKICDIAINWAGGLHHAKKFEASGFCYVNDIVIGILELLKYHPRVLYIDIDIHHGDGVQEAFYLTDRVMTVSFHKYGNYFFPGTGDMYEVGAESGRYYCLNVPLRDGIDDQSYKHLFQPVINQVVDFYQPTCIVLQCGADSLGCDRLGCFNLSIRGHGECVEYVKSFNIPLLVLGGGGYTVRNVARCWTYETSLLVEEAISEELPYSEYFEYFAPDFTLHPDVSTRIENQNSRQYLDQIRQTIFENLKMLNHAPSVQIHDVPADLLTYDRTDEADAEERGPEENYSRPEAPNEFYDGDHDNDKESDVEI
Chain of Full length Human HDAC3 co-expressed with Human NCOR2 (Q9Y618 395-489 partner limits assumed): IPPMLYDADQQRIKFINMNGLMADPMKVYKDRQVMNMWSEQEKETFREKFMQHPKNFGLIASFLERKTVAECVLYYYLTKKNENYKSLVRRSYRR
In assay [4] the target is Human HDAC4 aa 101-1084(end) (Homo sapiens, UniProt P56524).
Chain of Human HDAC4 aa 101-1084(end) (P56524 101-1084): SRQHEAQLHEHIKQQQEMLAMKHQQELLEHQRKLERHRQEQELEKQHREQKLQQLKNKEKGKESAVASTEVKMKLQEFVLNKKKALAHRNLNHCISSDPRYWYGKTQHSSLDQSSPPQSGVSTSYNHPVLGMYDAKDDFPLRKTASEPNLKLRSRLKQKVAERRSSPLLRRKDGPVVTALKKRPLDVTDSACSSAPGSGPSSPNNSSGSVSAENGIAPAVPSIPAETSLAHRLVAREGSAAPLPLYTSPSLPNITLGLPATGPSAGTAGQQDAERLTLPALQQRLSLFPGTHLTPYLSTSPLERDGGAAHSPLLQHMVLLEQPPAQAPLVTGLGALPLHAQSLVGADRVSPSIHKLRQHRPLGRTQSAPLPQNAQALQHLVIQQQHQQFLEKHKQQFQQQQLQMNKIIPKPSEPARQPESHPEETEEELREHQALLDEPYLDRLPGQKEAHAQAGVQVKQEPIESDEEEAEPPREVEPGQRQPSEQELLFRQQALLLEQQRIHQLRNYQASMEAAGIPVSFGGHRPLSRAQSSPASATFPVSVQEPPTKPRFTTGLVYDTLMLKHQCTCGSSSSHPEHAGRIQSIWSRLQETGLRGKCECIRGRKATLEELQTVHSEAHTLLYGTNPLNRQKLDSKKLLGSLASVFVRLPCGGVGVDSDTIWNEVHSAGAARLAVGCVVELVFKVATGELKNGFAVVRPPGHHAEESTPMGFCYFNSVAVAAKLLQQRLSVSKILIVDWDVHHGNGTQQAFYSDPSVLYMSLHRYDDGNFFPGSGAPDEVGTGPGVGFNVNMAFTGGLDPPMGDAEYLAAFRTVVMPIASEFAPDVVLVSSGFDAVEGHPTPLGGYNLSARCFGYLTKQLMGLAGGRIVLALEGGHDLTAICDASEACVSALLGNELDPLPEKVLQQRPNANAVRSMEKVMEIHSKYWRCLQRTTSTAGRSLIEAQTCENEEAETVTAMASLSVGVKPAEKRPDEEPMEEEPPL
For another assay, the target named is Full length Human HDAC5 (Homo sapiens, UniProt Q9UQL6).
Chain of Full length Human HDAC5 (Q9UQL6 whole entry): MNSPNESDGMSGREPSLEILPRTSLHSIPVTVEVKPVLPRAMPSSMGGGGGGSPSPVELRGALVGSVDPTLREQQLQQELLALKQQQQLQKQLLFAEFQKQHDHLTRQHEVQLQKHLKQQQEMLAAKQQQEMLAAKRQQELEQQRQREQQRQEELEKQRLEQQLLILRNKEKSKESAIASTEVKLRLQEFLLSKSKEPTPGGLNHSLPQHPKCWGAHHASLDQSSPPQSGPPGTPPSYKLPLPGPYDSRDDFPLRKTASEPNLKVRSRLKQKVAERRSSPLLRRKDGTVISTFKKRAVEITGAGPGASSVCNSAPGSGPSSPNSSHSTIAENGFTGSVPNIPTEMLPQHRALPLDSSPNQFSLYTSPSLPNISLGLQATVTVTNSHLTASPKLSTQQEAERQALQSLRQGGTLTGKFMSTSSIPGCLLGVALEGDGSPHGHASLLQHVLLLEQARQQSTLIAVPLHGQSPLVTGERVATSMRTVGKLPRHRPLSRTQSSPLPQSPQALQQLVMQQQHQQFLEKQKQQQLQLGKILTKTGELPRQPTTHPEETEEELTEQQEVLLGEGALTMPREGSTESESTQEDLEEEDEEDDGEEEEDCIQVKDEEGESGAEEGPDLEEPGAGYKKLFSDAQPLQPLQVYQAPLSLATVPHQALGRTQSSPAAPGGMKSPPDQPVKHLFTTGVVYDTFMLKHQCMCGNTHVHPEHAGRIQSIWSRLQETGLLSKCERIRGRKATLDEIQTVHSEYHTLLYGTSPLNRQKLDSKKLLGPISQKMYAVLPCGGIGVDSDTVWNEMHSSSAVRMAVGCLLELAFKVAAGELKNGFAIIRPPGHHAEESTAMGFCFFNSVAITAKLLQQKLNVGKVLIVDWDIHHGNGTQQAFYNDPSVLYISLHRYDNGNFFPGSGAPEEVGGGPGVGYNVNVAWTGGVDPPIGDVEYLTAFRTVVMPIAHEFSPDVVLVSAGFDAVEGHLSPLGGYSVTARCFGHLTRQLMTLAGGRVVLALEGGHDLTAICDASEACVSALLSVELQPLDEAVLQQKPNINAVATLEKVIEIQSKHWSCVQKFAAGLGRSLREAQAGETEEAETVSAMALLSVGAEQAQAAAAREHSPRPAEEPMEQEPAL
The next assay addresses T1, Full length Human HDAC11 (Homo sapiens, UniProt Q96DB2).
T1 sequence (Q96DB2 1-347): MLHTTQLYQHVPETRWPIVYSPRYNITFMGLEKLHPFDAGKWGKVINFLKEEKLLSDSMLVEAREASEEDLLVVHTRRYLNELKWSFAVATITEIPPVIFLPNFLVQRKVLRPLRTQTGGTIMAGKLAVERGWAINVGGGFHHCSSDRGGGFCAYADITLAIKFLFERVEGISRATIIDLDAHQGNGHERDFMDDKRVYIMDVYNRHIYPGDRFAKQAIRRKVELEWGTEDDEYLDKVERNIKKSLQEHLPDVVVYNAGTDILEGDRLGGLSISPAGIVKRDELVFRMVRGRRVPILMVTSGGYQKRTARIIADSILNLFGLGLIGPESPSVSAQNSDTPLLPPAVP

Turning to `O=C(NO)c1cc(F)c2c(c1)CCN1CCC[C@@H]21` (single isomer, unassigned) [compound 79], the EC50 in assay [1] was 0.44 µM; in assay [2], more than 10 µM. The half-maximal inhibitory concentration (IC50) is 10 to 100 µM on Full length Human HDAC2; 1 to 10 µM in assay [3]; 1 to 10 µM in assay [4]; 1 to 10 µM on Full length Human HDAC5; more than 100 µM against Full length Human HDAC11.
In the case of `O=C(NO)c1cc(F)c2c(c1)C[C@@H]1CCCCN1C2` (single isomer, unassigned) [compound 93], the 50% inhibitory concentration (IC50) lay within 10 to 100 µM on Full length Human HDAC2; 1 to 10 µM in assay [3]; 1 to 10 µM in assay [4]; 1 to 10 µM at Full length Human HDAC5; 1 to 10 µM against Full length Human HDAC11.
Regarding `O=C(NO)c1cc(F)c2c(c1)C[C@H]1CCCCN1C2` (single isomer, unassigned) [compound 94], the IC50 is more than 100 µM on Full length Human HDAC2; 10 to 100 µM in assay [3]; 10 to 100 µM in assay [4]; 10 to 100 µM against Full length Human HDAC5; more than 100 µM at Full length Human HDAC11.
Consider `O=C(NO)c1ccc(CN2C[C@@H]3CC[C@H]2CO3)c(F)c1` (single isomer, unassigned) [compound 172], for which the IC50 against Full length Human HDAC2 was more than 100 µM; in assay [3] it was 10 to 100 µM; in assay [4] it was 10 to 100 µM; against Full length Human HDAC5, 10 to 100 µM; against Full length Human HDAC11 it was 0.001 to 0.1 µM.
In the case of `O=C(NO)c1ccc(CN2C[C@H]3CC[C@@H]2CO3)c(F)c1` (single isomer, unassigned) [compound 173], the half-maximal inhibitory concentration (IC50) against Full length Human HDAC2 was in the range of 10 to 100 µM; in assay [3], 1 to 10 µM; in assay [4], 1 to 10 µM; on Full length Human HDAC5, 10 to 100 µM; on Full length Human HDAC11, 10 to 100 µM.
As for `O=C(NO)c1cc(F)c2c(c1)CCN(C1CC3(CCCCC3)C1)C2` [compound 16], the EC50 in assay [1] was 2.9 µM; in assay [2], more than 10 µM. Besides, the IC50 against Full length Human HDAC2 is 10 to 100 µM; in assay [3] it was 10 to 100 µM; in assay [4] it was 10 to 100 µM; at Full length Human HDAC5 it was more than 100 µM; against Full length Human HDAC11 it was 1 to 10 µM.
Consider `O=C(NO)c1cc(F)c2c(c1)CCN(Cc1ccccc1)C2` [compound 32], for which the concentration giving a half-maximal response (EC50) in assay [1] was 0.3 µM; in assay [2] it was more than 10 µM.
As to `O=C(NO)c1cc(F)c2c(c1)CCN(CC13CC4CC(CC(C4)C1)C3)C2` [compound 34], the concentration giving a half-maximal response (EC50) in assay [1] was 2.1 µM; in assay [2] it was more than 10 µM. Besides, the half-maximal inhibitory concentration (IC50) was in the range of 10 to 100 µM at Full length Human HDAC2; 1 to 10 µM in assay [3]; 10 to 100 µM in assay [4]; 10 to 100 µM at Full length Human HDAC5; 1 to 10 µM against Full length Human HDAC11.
As for `O=C(NO)c1ccc(CN2CC3CCC(C2)O3)c(F)c1` [compound 53], the figures for the EC50 in assay [1] and in assay [2] were 0.2 µM and more than 10 µM, respectively. Moreover, the half-inhibitory concentration (IC50) on Full length Human HDAC2 fell in the range of 10 to 100 µM; in assay [3] it was 1 to 10 µM; in assay [4], 1 to 10 µM; against Full length Human HDAC5 it was 1 to 10 µM; at Full length Human HDAC11, 10 to 100 µM.
As for `O=C(NO)c1ccc(CN2CC3CCC2CO3)c(F)c1` (stereo not shown) [compound 58], the concentration for a half-maximal effect (EC50) came to 2.6 µM in assay [1] and 2.5 µM in assay [2]. Besides, the IC50 at Full length Human HDAC2 was 10 to 100 µM; in assay [3] it was 1 to 10 µM; in assay [4], 1 to 10 µM; against Full length Human HDAC5, 1 to 10 µM; on Full length Human HDAC11, more than 100 µM.
Turning to `O=C(NO)c1ccc(CN2CCC3(CCCCC3)C2)c(F)c1` [compound 75, 4-((2-Azaspiro[4.5]decan-2-yl)methyl)-3-fluoro-N-hydroxybenzamide], the EC50 is 1.4 µM in assay [1] and more than 10 µM in assay [2].
`O=C(NO)c1ccc2c(c1)CN1CCCCN1C2` [compound 106, N-hydroxy-1,2,3,4,6,11-hexahydropyridazino[1,2-b]phthalazine-8-carboxamide]: the IC50 at Full length Human HDAC2 was 10 to 100 µM; in assay [3], 1 to 10 µM; in assay [4] it was 10 to 100 µM; against Full length Human HDAC5, more than 100 µM; against Full length Human HDAC11, 10 to 100 µM.

What is called EC50 is the concentration at which the effect is half-maximal. By IC50 is commonly meant the concentration needed to halve the response being measured. Higher therefore signals weaker potency.
